Read-outs that look alike come from different tables or passages of the source.
Legend:
[1] = system: carbon tetrachloride (CCl4) induced liver damage; test: Effect on carbon tetrachloride (CCl4) induced liver damage (liver cell necrosis type); format: in vivo, Male Wistar rats; settings: for inhibition in vivo at 1 mg/kg / inhibition in vivo at 0.1 mg/kg / inhibition in vivo at 0.05 mg/kg / inhibition in vivo at 0.02 mg/kg / inhibition in vivo at 0.5 mg/kg / inhibition in vivo at 1.5 mg/kg: Rattus norvegicus, 24 h; for inhibition in vivo at 1 mg/kg: 1000 μg/kg; for inhibition in vivo at 0.05 mg/kg: 50 μg/kg; for inhibition in vivo at 0.02 mg/kg: 20 μg/kg; for inhibition in vivo at 0.5 mg/kg: 500 μg/kg; for inhibition in vivo at 1.5 mg/kg: 1500 μg/kg
Method: Effect on carbon tetrachloride (CCl4) induced liver damage (liver cell necrosis type)
Male Wistar rats weighing 180-220 g were used. Rats were dosed intraperitoneally with CCl4 dissolved in olive oil (5%, w/v) at a volume of 500 μl/kg after 18 hr starvation. The compound under test was administered orally (p.o.) or subcutaneously (s.c.) 6 and 12 hr after CCl4 injection in rats and blood was collected after 24 hr. Plasma glutamic oxaloacetic transaminase (GOT) and glutamic pyruvic transaminase (GPT) activities were determined by ultraviolet absorbance methods (optimised method based on the recommendations of the Deutsche Gesellschaft fur Klinische Chemie). The effects of the compounds tested were assessed by the inhibition rate in comparison with controls. Inhibition rate was calculated by the following formula. [formula] The results obtained are shown in the following Tables 1A and 1B for compounds of the general formula: [drawing 10] wherein R, R^1 and --X--Y--Z-- have the meanings indicated.
In Tables 1A, 1B and 2 to 5 hereinafter the dose shown in the amount given at each administration of the compound under test.

Acute toxicity test = settings: mouse, in vivo; oral, mice observed for 14 days
Method: Male JCL-ICR mice (non SPF mice) from 7 weeks of age were used. The compound under test was dissolved in 5% v/v ethanol containing 0.4% w/v Tween 80 (Tween is a registered trademark) and administered orally to the mice. […] The deaths observed were all within 72 hrs after treatment.

artery = settings: cited from earlier work
[2] = system: blood platelet aggregation; settings: cited from earlier work
[3] = po, p.o., plasma GOT after 24 hr, read-out: inhibition rate GOT
[4] = po, p.o., plasma GPT after 24 hr, read-out: inhibition rate GPT
[5] = po, p.o., 100 μg/kg, plasma GOT after 24 hr, read-out: inhibition rate GOT
[6] = po, p.o., 100 μg/kg, plasma GPT after 24 hr, read-out: inhibition rate GPT
[7] = sc, s.c., plasma GOT after 24 hr, read-out: inhibition rate GOT
[8] = sc, s.c., plasma GPT after 24 hr, read-out: inhibition rate GPT

With `CCCC1CCC([C@H](O)/C=C/[C@@H]2[C@H]3CC(CCCCC(=O)OC)=N[C@H]3C[C@H]2O)C1` (stereo partly drawn) [Compound 13, 15-(3-Propylcyclopentyl)-16,17,18,19,20-pentanor-6,9α-nitrilo-PGI1 methyl ester] the inhibition in vivo at 1 mg/kg [1, 3] was 46% and the inhibition in vivo at 1 mg/kg [1, 4] was 32.5%.

Work on `COC(=O)CCCCC(=O)C[C@H]1C(=O)C[C@@H](O)[C@@H]1/C=C/[C@@H](O)C1CCC(C)CC1` (stereo partly shown) [Compound 9, 15-(4-Methylcyclohexyl)-16,17,18,19,20-pentanor-6-oxo-PGE1 methyl ester] yielded an inhibition in vivo at 0.1 mg/kg [1, 5] of 21%, an inhibition in vivo at 0.1 mg/kg [1, 6] of 0% and an inhibition in vivo at 0.05 mg/kg [1, 7] of 13.1%. For the same compound, the inhibition in vivo at 0.05 mg/kg [1, 8] was 8.8%.

Compound `CCCCC1CCC([C@H](O)/C=C/[C@H]2[C@H](O)CC(=O)[C@@H]2CC(=O)CCCCC(=O)OC)C1` (single isomer, unassigned) [Compound 8, 15-(3-Butylcyclopentyl)-16,17,18,19,20-pentanor-6-oxo-PGE1 methyl ester] has an inhibition in vivo at 0.1 mg/kg [1, 5] of 77.7%, an inhibition in vivo at 0.1 mg/kg [1, 6] of 73.7% and an inhibition in vivo at 0.02 mg/kg [1, 7] of 44.4%. The inhibition in vivo at 0.02 mg/kg [1, 8] was 39.3% and the LD50 at 336 h (Acute toxicity test) was 10 to 20 mg/kg.

`CCC1CCC([C@H](O)/C=C/[C@H]2[C@H](O)CC(=O)[C@@H]2CC(=O)CCCCC(=O)OC)CC1` (stereo partly shown) [Compound 10, 15-(4-Ethylcyclohexyl)-16,17,18,19,20-pentanor-6-oxo-PGE1 methyl ester] gave an inhibition in vivo at 0.05 mg/kg [1, 7] of 35.6% and an inhibition in vivo at 0.05 mg/kg [1, 8] of 12.2%.

`CCCC1CCC([C@H](O)/C=C/[C@H]2[C@H](O)CC(=O)[C@@H]2CC(=O)CCCCC(=O)OC)C1` (stereo partly shown) [Compound 4, 15-(3-Propylcyclopentyl)-16,17,18,19,20-pentanor-6-oxo-PGE1 methyl ester] gave an inhibition in vivo at 0.1 mg/kg [1, 5] of 77% and an inhibition in vivo at 0.1 mg/kg [1, 6] of 51.5%.

For `CCCCC1CCC([C@H](O)/C=C/[C@@H]2[C@H]3CC(CCCCC(=O)OC)=N[C@H]3C[C@H]2O)C1` (stereo partly drawn) [Compound 15, 15-(3-Butylcyclopentyl)-16,17,18,19,20-pentanor-6,9α-nitrilo-PGI1 methyl ester], the inhibition in vivo at 1 mg/kg [1, 3] was 45.5% and the inhibition in vivo at 1 mg/kg [1, 4] was 15.6%.

`CCCC1CC([C@H](O)/C=C/[C@H]2[C@H](O)CC(=O)[C@@H]2CC(=O)CCCCC(=O)OC)C1` (stereo partly shown) [Compound 2, 15-(3-Propylcyclobutyl)-16,17,18,19,20-pentanor-6-oxo-PGE1 methyl ester] showed an inhibition in vivo at 0.05 mg/kg [1, 7] of 52.4% and an inhibition in vivo at 0.05 mg/kg [1, 8] of 17.3%.

`CCC1CC([C@H](O)/C=C/[C@H]2[C@H](O)CC(=O)[C@@H]2CC(=O)CCCCC(=O)OC)C1` (stereo partly shown) [Compound 1, 15-(3-Ethylcyclobutyl)-16,17,18,19 20-pentanor-6-oxo-PGE1 methyl ester] showed an inhibition in vivo at 0.05 mg/kg [1, 7] of 21% and an inhibition in vivo at 0.05 mg/kg [1, 8] of 0%.

In the case of `CCCC1CCC([C@H](O)/C=C/[C@H]2[C@H](O)CC(=O)[C@@H]2CC(=O)CCCCC(=O)O)C1` (stereo partly shown) [Compound 5, 15-(3-Propylcyclopentyl)-16,17,18,19,20-pentanor-6-oxo-PGE1], the inhibition in vivo at 0.1 mg/kg [1, 5] is reported as 32.6% and the inhibition in vivo at 0.1 mg/kg [1, 6] is reported as 44.5%.

Work on `CCCCC1CCC([C@H](O)/C=C/[C@H]2[C@H](O)CC(=O)[C@@H]2CC(=O)CCCCC(=O)OC)C1` (stereo partly shown) [Compound 7, 15-(3-Butylcyclopentyl)-16,17,18,19,20-pentanor-6-oxo-PGE1 methyl ester] yielded an inhibition in vivo at 0.1 mg/kg [1, 5] of 62.7% and an inhibition in vivo at 0.1 mg/kg [1, 6] of 55.1%.

`CCCC1CCC([C@H](O)/C=C/[C@@H]2[C@H]3CC(CCCCC(=O)OC)=N[C@H]3C[C@H]2O)C1` (single isomer, unassigned) [Compound 14, 15-(3-Propylcyclopentyl)-16,17,18,19,20-pentanor-6,9α-nitrilo-PGI1 methyl ester] showed an inhibition in vivo at 0.5 mg/kg [1, 3] of 39.8%, an inhibition in vivo at 0.5 mg/kg [1, 4] of 20.8% and an inhibition in vivo at 0.5 mg/kg [1, 7] of 68.6%. The inhibition in vivo at 0.5 mg/kg [1, 8] was 64.2% and the LD50 at 336 h (Acute toxicity test) was 40 to 100 mg/kg.

Compound `CCCC1CCC([C@H](O)/C=C/[C@H]2[C@H](O)CC(=O)[C@@H]2CC(=O)CCCCC(=O)OC)CC1` (stereo partly shown) [Compound 11, 15-(4-Propylcyclohexyl)-16,17,18,19,20-pentanor-6-oxo-PGE1 methyl ester] has an inhibition in vivo at 0.05 mg/kg [1, 7] of 48.5% and an inhibition in vivo at 0.05 mg/kg [1, 8] of 45.1%.

Compound `COC(=O)CCCCC(=O)C[C@H]1C(=O)C[C@@H](O)[C@@H]1/C=C/[C@@H](O)C1CCCC1` [Compound 3, 15-Cyclopentyl-16,17,18,19,20-pentanor-6-oxo-PGE1 methyl ester] has an inhibition in vivo at 0.1 mg/kg [1, 5] of 19%, an inhibition in vivo at 0.1 mg/kg [1, 6] of 30.5% and an LD50 at 336 h (Acute toxicity test) of 10 to 20 mg/kg.

For `CCCC1CCC([C@H](O)/C=C/[C@H]2[C@H](O)CC(=O)[C@@H]2CC(=O)CCCCC(=O)OC)C1` (single isomer, unassigned) [Compound 12, 15-(3-Propylcyclopentyl)-16,17,18,19,20-pentanor-6-oxo-PGE1 methyl ester], the “inhibition rate GOT” value ([1]; p.o., 100 μg/kg, plasma GOT after 24 hr) was 25.4% and the “inhibition rate GPT” value ([1]; p.o., 100 μg/kg, plasma GPT after 24 hr) was 22.2%.

In the case of `CCCCC[C@H](O)/C=C/[C@H]1O[C@H]2C[C@H](O2)[C@@H]1C/C=C\CCCC(=O)O` [thromboxane A2], the “activity on the artery” value (artery) is listed as “contracting activity” and the “effect on blood platelet aggregation” value [2] is listed as “aggregating activity”.

For `CCCC1CCC([C@H](O)/C=C/[C@@H]2[C@H]3CC(CCCCC(=O)OC)O[C@H]3C[C@H]2O)C1` (stereo partly shown) [Compound 16, 15-(3-Propylcyclopentyl)-16,17,18,19,20-pentanor-PGI1 methyl ester], the inhibition in vivo at 1.5 mg/kg [1, 3] was 51% and the inhibition in vivo at 1.5 mg/kg [1, 4] was 53%.

Work on `CCCC1CCC([C@H](O)/C=C/[C@@H]2[C@H]3C[C@H](CCCCC(=O)OC)O[C@H]3C[C@H]2O)C1` (stereo partly drawn) [Compound 17, (6S)-15-(3-propylcyclopentyl)-16,17,18,19,20-pentanor-PGI1 methyl ester] yielded an inhibition in vivo at 1 mg/kg [1, 3] of 32.9% and an inhibition in vivo at 1 mg/kg [1, 4] of 32%.
